These results are taken from patent US8969516B2, “Method of hydrolysis of peptide bond” (priority 2006, dated 2015).

The data set in a line: MALDI-TOF screening of Ni^2+ dependent hydrolysis in a combinatorial peptide library. The format is physicochemical. The note with it: CH3CO-Gly-Ala-Thr-X-His-Z-Lys-Phe-Leu-NH2 library, Ni^2+ 2 mM, pH 8.2, 10 mM Tris, score=24/tm. In short, it runs like this:
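MALDI-TOF read-out: appearance of Ser/Thr-X-His-Z-Lys-Phe-Leu-NH2 product signals, plus loss of substrate signals, checked by eye at 2, 4, 6, 8 h. Conditions: 1 mM peptide mixture, 2 mM Ni2+, 10 mM Tris pH 8.2, 37 or 45 °C.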

As for Ac-GATMHEKFL-NH2 [TMHE], the “hydrolysis score from MALDI-TOF screening” value (“hydrolysis score” for short) is, setting by setting: (37° C.) 0 (a score of 0 if no trace of the product of hydrolysis was seen after 8 hours of incubation); (45° C.) 0 (a score of 0 if no trace of the product of hydrolysis was seen after 8 hours of incubation).

Take Ac-GATMHFKFL-NH2 [TMHF]: the “hydrolysis score” value (37° C.) is listed as 0 (a score of 0 if no trace of the product of hydrolysis was seen after 8 hours of incubation) and the “hydrolysis score” value (45° C.) was 0 (a score of 0 if no trace of the product of hydrolysis was seen after 8 hours of incubation).

With Ac-GATMHGKFL-NH2 [TMHG], the “hydrolysis score” value is 0 (a score of 0 if no trace of the product of hydrolysis was seen after 8 hours of incubation) (37° C.) and 0 (a score of 0 if no trace of the product of hydrolysis was seen after 8 hours of incubation) (45° C.).

As for Ac-GATMHHKFL-NH2 [TMHH], the “hydrolysis score” value (37° C.) is 0 (a score of 0 if no trace of the product of hydrolysis was seen after 8 hours of incubation) and the “hydrolysis score” value (45° C.) was 0 (a score of 0 if no trace of the product of hydrolysis was seen after 8 hours of incubation).

Ac-GATMHIKFL-NH2 [TMHI]: the “hydrolysis score” value runs as follows: (37° C.) 0 (a score of 0 if no trace of the product of hydrolysis was seen after 8 hours of incubation); (45° C.) 0 (a score of 0 if no trace of the product of hydrolysis was seen after 8 hours of incubation).

With Ac-GATMHKKFL-NH2 [TMHK], the “hydrolysis score” value was 0 (a score of 0 if no trace of the product of hydrolysis was seen after 8 hours of incubation) (37° C.) and 3 (a score of 3 for detection at 8 hours) (45° C.).

Ac-GATMHLKFL-NH2 [TMHL]: the “hydrolysis score” value is reported as 0 (a score of 0 if no trace of the product of hydrolysis was seen after 8 hours of incubation) (37° C.) and 0 (a score of 0 if no trace of the product of hydrolysis was seen after 8 hours of incubation) (45° C.).

Take Ac-GATMHMKFL-NH2 [TMHM]: the “hydrolysis score” value by setting is: (37° C.) 0 (a score of 0 if no trace of the product of hydrolysis was seen after 8 hours of incubation); (45° C.) 0 (a score of 0 if no trace of the product of hydrolysis was seen after 8 hours of incubation).

Consider Ac-GATMHNKFL-NH2 [TMHN], for which the “hydrolysis score” value is 0 (a score of 0 if no trace of the product of hydrolysis was seen after 8 hours of incubation) (37° C.) and 0 (a score of 0 if no trace of the product of hydrolysis was seen after 8 hours of incubation) (45° C.).

For Ac-GATMHPKFL-NH2 [TMHP], the “hydrolysis score” value is, setting by setting: (37° C.) 0 (a score of 0 if no trace of the product of hydrolysis was seen after 8 hours of incubation); (45° C.) 0 (a score of 0 if no trace of the product of hydrolysis was seen after 8 hours of incubation).

For the substance Ac-GATMHQKFL-NH2 [TMHQ], the “hydrolysis score” value is reported as 0 (a score of 0 if no trace of the product of hydrolysis was seen after 8 hours of incubation) (37° C.) and 0 (a score of 0 if no trace of the product of hydrolysis was seen after 8 hours of incubation) (45° C.).

Ac-GATMHSKFL-NH2 [TMHS]: the “hydrolysis score” value (37° C.) is 0 (a score of 0 if no trace of the product of hydrolysis was seen after 8 hours of incubation) and the “hydrolysis score” value (45° C.) is on record as 0 (a score of 0 if no trace of the product of hydrolysis was seen after 8 hours of incubation).

Regarding Ac-GATMHTKFL-NH2 [TMHT], the “hydrolysis score” value by setting is: (37° C.) 0 (a score of 0 if no trace of the product of hydrolysis was seen after 8 hours of incubation); (45° C.) 0 (a score of 0 if no trace of the product of hydrolysis was seen after 8 hours of incubation).

For Ac-GATMHVKFL-NH2 [TMHV], the “hydrolysis score” value is 0 (a score of 0 if no trace of the product of hydrolysis was seen after 8 hours of incubation) (37° C.) and 0 (a score of 0 if no trace of the product of hydrolysis was seen after 8 hours of incubation) (45° C.).

As to Ac-GATMHWKFL-NH2 [TMHW], the “hydrolysis score” value is on record as 3 (a score of 3 for detection at 8 hours) (37° C.) and 3 (a score of 3 for detection at 8 hours) (45° C.).

On to Ac-GATMHYKFL-NH2 [TMHY], for which the “hydrolysis score” value (37° C.) is 0 (a score of 0 if no trace of the product of hydrolysis was seen after 8 hours of incubation) and the “hydrolysis score” value (45° C.) is on record as 0 (a score of 0 if no trace of the product of hydrolysis was seen after 8 hours of incubation).

As for Ac-GATNHAKFL-NH2 [TNHA], the “hydrolysis score” value was 0 (a score of 0 if no trace of the product of hydrolysis was seen after 8 hours of incubation) (37° C.) and 0 (a score of 0 if no trace of the product of hydrolysis was seen after 8 hours of incubation) (45° C.).

Turning to Ac-GATNHDKFL-NH2 [TNHD], the “hydrolysis score” value (37° C.) was 0 (a score of 0 if no trace of the product of hydrolysis was seen after 8 hours of incubation) and the “hydrolysis score” value (45° C.) was 0 (a score of 0 if no trace of the product of hydrolysis was seen after 8 hours of incubation).

For the substance Ac-GATNHEKFL-NH2 [TNHE], the “hydrolysis score” value by setting is: (37° C.) 0 (a score of 0 if no trace of the product of hydrolysis was seen after 8 hours of incubation); (45° C.) 0 (a score of 0 if no trace of the product of hydrolysis was seen after 8 hours of incubation).

As for Ac-GATNHFKFL-NH2 [TNHF], the “hydrolysis score” value runs as follows: (37° C.) 0 (a score of 0 if no trace of the product of hydrolysis was seen after 8 hours of incubation); (45° C.) 0 (a score of 0 if no trace of the product of hydrolysis was seen after 8 hours of incubation).

In the case of Ac-GATNHGKFL-NH2 [TNHG], the “hydrolysis score” value is recorded as 0 (a score of 0 if no trace of the product of hydrolysis was seen after 8 hours of incubation) (37° C.) and 0 (a score of 0 if no trace of the product of hydrolysis was seen after 8 hours of incubation) (45° C.).

For the substance Ac-GATNHHKFL-NH2 [TNHH], the “hydrolysis score” value reads like this: (37° C.) 0 (a score of 0 if no trace of the product of hydrolysis was seen after 8 hours of incubation); (45° C.) 0 (a score of 0 if no trace of the product of hydrolysis was seen after 8 hours of incubation).

In the case of Ac-GATNHIKFL-NH2 [TNHI], the “hydrolysis score” value (37° C.) was 0 (a score of 0 if no trace of the product of hydrolysis was seen after 8 hours of incubation) and the “hydrolysis score” value (45° C.) is 0 (a score of 0 if no trace of the product of hydrolysis was seen after 8 hours of incubation).

Regarding Ac-GATNHKKFL-NH2 [TNHK], the “hydrolysis score” value is, setting by setting: (37° C.) 0 (a score of 0 if no trace of the product of hydrolysis was seen after 8 hours of incubation); (45° C.) 0 (a score of 0 if no trace of the product of hydrolysis was seen after 8 hours of incubation).

Take Ac-GATNHLKFL-NH2 [TNHL]: the “hydrolysis score” value runs as follows: (37° C.) 0 (a score of 0 if no trace of the product of hydrolysis was seen after 8 hours of incubation); (45° C.) 0 (a score of 0 if no trace of the product of hydrolysis was seen after 8 hours of incubation).

For the substance Ac-GATNHNKFL-NH2 [TNHN], the “hydrolysis score” value is 0 (a score of 0 if no trace of the product of hydrolysis was seen after 8 hours of incubation) (37° C.) and 0 (a score of 0 if no trace of the product of hydrolysis was seen after 8 hours of incubation) (45° C.).

For Ac-GATNHPKFL-NH2 [TNHP], the “hydrolysis score” value by setting is: (37° C.) 0 (a score of 0 if no trace of the product of hydrolysis was seen after 8 hours of incubation); (45° C.) 0 (a score of 0 if no trace of the product of hydrolysis was seen after 8 hours of incubation).

Ac-GATNHQKFL-NH2 [TNHQ]: the “hydrolysis score” value was 0 (a score of 0 if no trace of the product of hydrolysis was seen after 8 hours of incubation) (37° C.) and 0 (a score of 0 if no trace of the product of hydrolysis was seen after 8 hours of incubation) (45° C.).

For Ac-GATNHRKFL-NH2 [TNHR], the “hydrolysis score” value is 0 (a score of 0 if no trace of the product of hydrolysis was seen after 8 hours of incubation) (37° C.) and 3 (a score of 3 for detection at 8 hours) (45° C.).

Consider Ac-GATNHSKFL-NH2 [TNHS], for which the “hydrolysis score” value by setting is: (37° C.) 0 (a score of 0 if no trace of the product of hydrolysis was seen after 8 hours of incubation); (45° C.) 0 (a score of 0 if no trace of the product of hydrolysis was seen after 8 hours of incubation).

With Ac-GATNHTKFL-NH2 [TNHT], the “hydrolysis score” value is listed as 0 (a score of 0 if no trace of the product of hydrolysis was seen after 8 hours of incubation) (37° C.) and 0 (a score of 0 if no trace of the product of hydrolysis was seen after 8 hours of incubation) (45° C.).

As for Ac-GATNHVKFL-NH2 [TNHV], the “hydrolysis score” value runs as follows: (37° C.) 0 (a score of 0 if no trace of the product of hydrolysis was seen after 8 hours of incubation); (45° C.) 0 (a score of 0 if no trace of the product of hydrolysis was seen after 8 hours of incubation).

Take Ac-GATNHWKFL-NH2 [TNHW]: the “hydrolysis score” value is 0 (a score of 0 if no trace of the product of hydrolysis was seen after 8 hours of incubation) (37° C.) and 3 (a score of 3 for detection at 8 hours) (45° C.).
